Data on three molecules can be found in publication doi:10.1101/2024.05.19.594723v1 (biorxiv, 2024).

Each structure is given as a SMILES string. Where a name gives a salt, the structure may show the parent alone. Read-outs that look alike come from different tables or passages of the source.

The nature of data set [1]: in vitro. The note with it: hamster, bhk-21 cells.
A short description of data set [2]: in vitro. The note with it: monkey, vero cells.
A further data set relates to Sindbis virus SINV. Nature of the data set: microbe, parasite or virus in culture. The note with it: BHK-21, read-out: SINV replicon assay IC50 (μM).
Data set [3] addresses T1, CHIKV nsP1 (Chikungunya virus strain S27-African prototype, UniProt Q8JUX6).
T1 sequence (Q8JUX6 1-535): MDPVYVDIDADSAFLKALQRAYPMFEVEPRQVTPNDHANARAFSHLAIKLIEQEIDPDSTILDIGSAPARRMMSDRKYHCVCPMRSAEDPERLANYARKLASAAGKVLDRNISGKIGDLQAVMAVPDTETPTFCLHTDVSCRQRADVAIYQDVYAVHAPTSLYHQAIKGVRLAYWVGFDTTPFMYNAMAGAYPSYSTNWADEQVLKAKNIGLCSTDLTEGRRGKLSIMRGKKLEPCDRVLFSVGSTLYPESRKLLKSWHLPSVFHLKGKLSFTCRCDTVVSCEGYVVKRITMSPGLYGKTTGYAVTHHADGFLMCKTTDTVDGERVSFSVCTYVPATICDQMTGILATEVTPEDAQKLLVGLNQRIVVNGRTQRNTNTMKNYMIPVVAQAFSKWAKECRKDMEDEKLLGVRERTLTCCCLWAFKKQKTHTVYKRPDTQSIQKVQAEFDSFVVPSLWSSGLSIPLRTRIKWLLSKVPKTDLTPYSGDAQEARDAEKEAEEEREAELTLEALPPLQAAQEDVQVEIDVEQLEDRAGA
Type of data set: binding.

Another data set concerns Chikungunya virus CHIKV. Nature of the data set: microbe, parasite or virus in culture. To be noted: read-out: Plaque reduction assay IC50 (nM). (In general: Plaque reduction counts the foci of infection that form in a cell layer.)
Data set [4] deals with T1, CHIKV nsP1. Nature of the data set: biochemical.

For the molecule `CC1(C)CCC(CN2CCN(c3ccc(C(=O)NS(=O)(=O)c4ccc(NCC5CCOCC5)c([N+](=O)[O-])c4)c(Oc4cnc5[nH]ccc5c4)c3)CC2)=C(c2ccc(Cl)cc2)C1` [ABT199/Venetoclax], the results for the 50% cytotoxic concentration (CC50) at 24 h in the data set “in vitro [1]” and in the data set “in vitro [2]” were greater than 2.5 µM and 5 µM, respectively. In addition, the figures for the IC50 in the data set on Sindbis virus SINV and in the data set with Chikungunya virus CHIKV were 0.23 ± 0.04 µM and 3.46 ± 1.31 nM, respectively. The equilibrium dissociation constant (Kd) (usually a measure of binding affinity in units of concentration) on CHIKV nsP1 [3] is roughly 161 µM.
Take `COc1cc2c3cc1Oc1c(OC)c(OC)cc4c1[C@@H](Cc1cccc(c1)Oc1ccc(c(O)c1)C[C@@H]3N(C)CC2)N(C)CC4` [Berbamine Hydrochloride]: the CC50 (in general, the concentration that lowers cell viability or growth by half) at 24 h in the data set “in vitro [1]” was 46 µM; in “in vitro [2]”, greater than 25 µM. This molecule also registered a Kd at CHIKV nsP1 [4] of 5.45 ± 0.77 µM. The IC50 (as a rule, the point on the concentration scale where inhibition reaches its midpoint) in the data set with Sindbis virus SINV was 1.94 ± 0.97 µM; in the data set with Chikungunya virus CHIKV it was less than 100 nM.
For `Cc1ccc(C(=O)Nc2ccc(CN3CCN(C)CC3)c(C(F)(F)F)c2)cc1C#Cc1cnc2cccnn12` [Ponatinib], the cytotoxic concentration (CC50) at 24 h in “in vitro [1]” amounted to 2.4 µM; in the data set “in vitro [2]”, 7.95 µM. Moreover, the IC50 with Sindbis virus SINV was greater than 1.25 µM; in the data set on Chikungunya virus CHIKV, less than 3.9 nM. At CHIKV nsP1 [3], this molecule yielded a Kd of roughly 3.83 µM.
